Legend:
Details in all cases: 72 h
[1] = tested on: HepG2; experiment: drug sensitivity score (DSS) for viability; higher = more toxic; extreme values may be limits of the assay
[2] = tested on: Caco-2; experiment: as above
[3] = tested on: U2OS; experiment: as above
[4] = tested on: Calu-3; experiment: as above
[5] = tested on: Vero E6; experiment: as above
[6] = tested on: HepG2; experiment: cell viability relative to DMSO; higher = less toxic
[7] = tested on: Caco-2; experiment: as above
[8] = tested on: U2OS; experiment: as above
[9] = tested on: Calu-3; experiment: as above
[10] = tested on: Vero E6; experiment: as above
[11] = tested on: HepG2; experiment: relative viability EC50 (midpoint between 100% and the lowest measured viability); higher = less toxic
[12] = tested on: Caco-2; experiment: as above
[13] = tested on: U2OS; experiment: as above
[14] = tested on: Calu-3; experiment: as above
[15] = tested on: Vero E6; experiment: as above

| SMILES | drug sensitivity score [1] | drug sensitivity score [2] | drug sensitivity score [3] | drug sensitivity score [4] | drug sensitivity score [5] | cell viability ([6]; 1 nM) [%] | cell viability ([6]; 10 nM) [%] | cell viability ([6]; 100 nM) [%] | cell viability ([6]; 1000 nM) [%] | cell viability ([6]; 10000 nM) [%] | cell viability ([7]; 1 nM) [%] | cell viability ([7]; 10 nM) [%] | cell viability ([7]; 100 nM) [%] | cell viability ([7]; 1000 nM) [%] | cell viability ([7]; 10000 nM) [%] | cell viability ([8]; 1 nM) [%] | cell viability ([8]; 10 nM) [%] | cell viability ([8]; 100 nM) [%] | cell viability ([8]; 1000 nM) [%] | cell viability ([8]; 10000 nM) [%] | cell viability ([9]; 1 nM) [%] | cell viability ([9]; 10 nM) [%] | cell viability ([9]; 100 nM) [%] | cell viability ([9]; 1000 nM) [%] | cell viability ([9]; 10000 nM) [%] | cell viability ([10]; 1 nM) [%] | cell viability ([10]; 10 nM) [%] | cell viability ([10]; 100 nM) [%] | cell viability ([10]; 1000 nM) [%] | cell viability ([10]; 10000 nM) [%] | relative viability EC50 [11] [µM] | relative viability EC50 [12] [µM] | relative viability EC50 [13] [µM] | relative viability EC50 [14] [µM] | relative viability EC50 [15] [µM] |
| --- | --- | --- | --- | --- | --- | --- | --- | --- | --- | --- | --- | --- | --- | --- | --- | --- | --- | --- | --- | --- | --- | --- | --- | --- | --- | --- | --- | --- | --- | --- | --- | --- | --- | --- | --- |
| N[C@@H](C(=O)N[C@@H]1C(=O)N2C(C(=O)O)=C(Cl)CS[C@H]12)c1ccccc1 [cefaclor] | 0 | 0 | 0 | 0 | 0 | 96.4 | 102 | 100 | 104 | 98.5 | 94.7 | 98 | 88.9 | 97.1 | 92.6 | 101 | 103 | 99.3 | 98 | 98.2 | 97.1 | 99 | 102 | 102 | 98.5 | 97 | 98.3 | 101 | 95.8 | 94.7 | > 10 | > 10 | > 10 | > 10 | > 10 |
| OC[C@@H](O)[C@H]1O[C@@H]2O[C@H](C(Cl)(Cl)Cl)O[C@@H]2[C@H]1O [chloralose] | 0 | 0 | 0 | 0 | 0 | 98.1 | 103 | 102 | 98.9 | 89.2 | 101 | 103 | 80.5 | 101 | 87.4 | 98.1 | 106 | 98.5 | 99.6 | 98.4 | 93.7 | 93.8 | 95.5 | 104 | 98.8 | 98.1 | 99 | 98.8 | 95.9 | 97.8 | > 10 | > 10 | > 10 | > 10 | > 10 |
| CC(C)NCC(O)c1ccc(N)c(C#N)c1 (stereo not given) [cimaterol] | 0 | 0 | 0 | 0 | 0 | 110 | 91.6 | 96.6 | 91.7 | 94.1 | 96 | 93.2 | 94.2 | 89.8 | 102 | 100 | 99.4 | 106 | 97 | 105 | 102 | 93.2 | 101 | 99.2 | 96.6 | 105 | 104 | 96.6 | 103 | 99.2 | > 10 | > 10 | > 10 | > 10 | > 10 |
| Clc1ccc(C(OCCN2CCCCC2)c2ccccc2)cc1 (stereo not given) [cloperastine] | 0.6 | 0.3 | 0 | 0 | 0.3 | 111 | 109 | 115 | 96.4 | 84.1 | 99 | 94.9 | 114 | 116 | 79.9 | 99.4 | 96.7 | 97.1 | 99.6 | 95.4 | 101 | 93.5 | 129 | 100 | 100 | 93.7 | 96.4 | 100 | 97 | 86.6 | > 10 | > 10 | > 10 | > 10 | > 10 |
| O=C(/C=C/c1ccc(CN(CCO)CCc2c[nH]c3ccccc23)cc1)NO [dacinostat] | 28.4 | 25.2 | 22.6 | 21.5 | 24.4 | 104 | 82 | 26.1 | -0.4 | -0.4 | 96.5 | 101 | 38.7 | 0.3 | 0.8 | 98.1 | 101 | 66.4 | 1.3 | 0.5 | 98.7 | 90.1 | 56.5 | 11.3 | 5.5 | 108 | 103 | 47.8 | -0.4 | -0.3 | 0.0395 | 0.083 | 0.131 | 0.109 | 0.0966 |
| C[C@@H]1C[C@H]2[C@@H]3CCC4=CC(=O)C=C[C@]4(C)[C@@]3(F)[C@@H](O)C[C@]2(C)[C@H]1C(=O)CO [desoximetasone] | 0 | 0 | 0 | 0 | 0 | 102 | 95.7 | 102 | 91.3 | 109 | 94.1 | 90.1 | 88 | 95.2 | 105 | 98.3 | 97.2 | 91.9 | 92.9 | 101 | 86.2 | 95 | 101 | 101 | 88.8 | 93 | 91.3 | 93.2 | 88.5 | 99 | > 10 | > 10 | > 10 | > 10 | > 10 |
| CCCCCN(CCCOC)C(=O)[C@@H](CCC(=O)O)NC(=O)c1ccc(Cl)c(Cl)c1 [dexloxiglumide] | 0 | 0.1 | 0 | 0 | 0 | 94.5 | 105 | 89.6 | 104 | 108 | 92.1 | 82.1 | 87.5 | 86.9 | 107 | 92.2 | 92.1 | 99.5 | 91.9 | 104 | 100 | 93.3 | 96.4 | 95.7 | 93 | 89.4 | 97.8 | 91.1 | 96.1 | 109 | > 10 | > 10 | > 10 | > 10 | > 10 |
| CN1C(=O)CN=C(c2ccccc2)c2cc(Cl)ccc21 [diazepam] | 0 | 2.2 | 0 | 0 | 0.2 | 94.8 | 105 | 101 | 100 | 101 | 104 | 101 | 85.6 | 87.6 | 96 | 107 | 102 | 107 | 99.6 | 103 | 110 | 92.4 | 96.6 | 98 | 110 | 97.8 | 100 | 101 | 98.6 | 86.7 | > 10 | > 10 | > 10 | > 10 | > 10 |
| NS(=O)(=O)c1cc(Cl)c(Cl)c(S(N)(=O)=O)c1 [diclofenamide] | 0 | 0 | 0 | 0 | 0 | 97.6 | 103 | 100 | 97 | 101 | 102 | 104 | 112 | 104 | 98.9 | 102 | 98 | 106 | 98.7 | 105 | 88.2 | 81.4 | 87.1 | 91 | 88.9 | 95.8 | 102 | 96 | 99.1 | 95.3 | > 10 | > 10 | > 10 | > 10 | > 10 |
| C/C=C(/C(=C/C)c1ccc(O)cc1)c1ccc(O)cc1 [dienestrol] | 0 | 0 | 0 | 0 | 0 | 101 | 100 | 98.4 | 110 | 95.3 | 112 | 96.5 | 105 | 106 | 102 | 106 | 108 | 107 | 99.9 | 109 | 98.1 | 91.4 | 92.4 | 84 | 95.7 | 101 | 107 | 101 | 104 | 94.3 | > 10 | > 10 | > 10 | > 10 | > 10 |
| CC/C=C\C/C=C\C/C=C\C/C=C\C/C=C\C/C=C\CCC(=O)OCC [doconexent-ethyl-ester] | 0 | 0 | 0 | 0 | 0 | 100 | 98.9 | 87.1 | 107 | 87.2 | 96.9 | 108 | 96.1 | 96.5 | 100 | 93.6 | 96.9 | 97.3 | 103 | 99.8 | 99.1 | 104 | 104 | 103 | 108 | 99.5 | 101 | 98.9 | 102 | 102 | > 10 | > 10 | > 10 | > 10 | > 10 |
| Cn1cc(C2=C(c3cn(C4CCN(Cc5ccccn5)CC4)c4ccccc34)C(=O)NC2=O)c2ccccc21 [enzastaurin] | 0 | 0 | 0 | 0 | 0 | 105 | 113 | 94 | 98 | 106 | 98.6 | 104 | 93.2 | 98.4 | 100 | 102 | 101 | 102 | 97.4 | 101 | 109 | 97.3 | 118 | 108 | 109 | 101 | 107 | 103 | 105 | 98.9 | > 10 | > 10 | > 10 | > 10 | > 10 |
| CC1(C)OC2(C)C(O)CC1CC2O (stereo not given) [epomediol] | 0 | 0 | 0 | 0 | 0 | 99.9 | 98.1 | 96.2 | 112 | 101 | 98.7 | 92.1 | 98.2 | 95 | 101 | 108 | 97.3 | 98.1 | 97.7 | 102 | 97.1 | 82.6 | 97.5 | 90.9 | 105 | 98.7 | 97 | 98 | 98.7 | 94 | > 10 | > 10 | > 10 | > 10 | > 10 |
| CC[C@H]1OC(=O)[C@H](C)[C@@H](O[C@H]2C[C@@](C)(OC)[C@@H](O)[C@H](C)O2)[C@H](C)[C@@H](O[C@@H]2O[C@H](C)C[C@H](N(C)C)[C@H]2O)[C@](C)(O)C[C@@H](C)C(=O)[C@H](C)[C@@H](O)[C@]1(C)O [erythromycin] | 0 | 0 | 0 | 0.5 | 0 | 100 | 83.5 | 98.1 | 91.4 | 90.4 | 97.9 | 100 | 97.2 | 94.4 | 96.4 | 104 | 102 | 102 | 98 | 101 | 94.2 | 102 | 97.5 | 90 | 86.9 | 101 | 97.9 | 101 | 97.4 | 99.5 | > 10 | > 10 | > 10 | > 10 | > 10 |

Source: the supplement of paper PMC13380429
